Here are results for 7 compounds from patent US20250073244A1, “CRYSTALLINE FORMS OF PENTAAZA MACROCYCLIC RING COMPLEX” (Galera Labs, LLC, priority 2023, published 2025).

Type in all cases: physicochemical
Data set [1] is described as follows: Differential scanning calorimetry (DSC). The settings on record: −30 to 250° C. Here is the method: DSC was performed using a Mettler-Toledo DSC3+ differential scanning calorimeter. A tau lag adjustment is performed with indium, tin, and zinc. The temperature and enthalpy are adjusted with octane, phenyl salicylate, indium, tin and zinc. The adjustment is then verified with octane, phenyl salicylate, indium, tin, and zinc. The sample was placed into a hermetically sealed aluminum DSC pan, the weight was accurately recorded, and the sample was inserted into the DSC cell. A weighed aluminum pan configured as the sample pan was placed on the reference side of the cell. The pan lid was pierced prior to sample analysis. […]
A cycling DSC experiment was conducted for as-received amorphous, in which the sample was analyzed from −25° C. to 200° C., then cooled to −25° C. and reheated to 250° C. at 10° C./min.

Data set [2] is described as follows: Form E generation attempts via desolvation or heating. From the text:
These attempts were not successful in providing Form E as a pure crystalline phase. Mixtures primarily composed of Form E and other unidentified crystalline phase(s) were obtained (FIG. 42).
Heat induced crystallization of amorphous GC4711 is described in Table 50.

Data set [3] is described as follows: Approximate solubility of the starting material at 25° C. and 50° C. As for the experimental part: About 10 mg of drug substance was weighed to a 2 mL glass vial and aliquot of 20 μL of each solvent will be added to determine solubility at 50° C. Approximate solubility was determined by visual observation.
Assay in data set [4]: as above
This is another data set of the same source.

A short description of data set [5]: X-ray powder diffraction (XRPD). Here is the method:
XRPD patterns were collected with a PANalytical X'Pert PRO MPD or a PANalytical Empyrean diffractometer using an incident beam of Cu radiation produced using an Optix long, fine-focus source. An elliptically graded multilayer mirror was used to focus Cu Kα X-rays through the specimen and onto the detector. Prior to the analysis, a silicon specimen (NIST SRM 640e or 640f) was analyzed to verify the observed position of the Si 111 peak is consistent with the NIST-certified position. A specimen of the sample was sandwiched between 3-μm-thick films and analyzed in transmission geometry. […]
XRPD patterns were collected with a PANalytical X'Pert PRO MPD diffractometer using an incident beam of Cu Kα radiation produced using a long, fine-focus source and a nickel filter. […] Prior to the analysis, a silicon specimen (NIST SRM 640e or 640f) was analyzed to verify the observed position of the Si 111 peak is consistent with the NIST-certified position. […]
XRPD patterns were collected with a PANalytical X'Pert PRO MPD or a PANalytical Empyrean diffractometer using an incident beam of Cu radiation produced using an Optix long, fine-focus source. […] Prior to the analysis, a silicon specimen (NIST SRM 640e or 640f) was analyzed to verify the observed position of the Si 111 peak is consistent with the NIST-certified position. […]

As to `CCC(=O)[O][Mn][O]C(=O)CC.c1cc2nc(c1)CN[C@H]1CCCC[C@@H]1NCCN[C@H]1CCCC[C@@H]1NC2` [Form 8429-73-01], the DSC endotherm onset result in data set [1] was “endotherm onset of 232 °C”.

Turning to `CCC(=O)[O][Mn][O]C(=O)CC.c1cc2nc(c1)CN[C@H]1CCCC[C@@H]1NCCN[C@H]1CCCC[C@@H]1NC2` [Sample 8516-07-01], the “Result (form)” value in data set [2] (8429-97-01 Forn E + Form A, vacuum dried, ambient, 2 days) is on record as “peaks”.

On to `CCC(=O)[O][Mn][O]C(=O)CC.c1cc2nc(c1)CN[C@H]1CCCC[C@@H]1NCCN[C@H]1CCCC[C@@H]1NC2` [drug substance], for which the Solubility entry is reported as “S > 259.5 mg/mL” in data set [3] (1,4-Dioxane); “S > 292.5 mg/mL” in data set [3] (2-Propanol); “S > 315.5 mg/mL” in data set [3] (Acetonitrile); “S > 278.5 mg/mL” in data set [3] (Dichloromethane); “S > 281.5 mg/mL” in data set [3] (Ethanol); “S > 332.0 mg/mL” in data set [3] (Methanol). Moreover, the Solubility entry in data set [3] (Tetrahydrofuran) is given as “S > 319.0 mg/mL”; in data set [3] (Water), “S > 337.5 mg/mL”; in data set [4] (2-Propanol, 25° C.), “S > 285.5 mg/mL”; in data set [4] (Dichloromethane, 25° C.), “S > 297.5 mg/mL”; in data set [4] (Ethanol, 25° C.), “S > 322.5 mg/mL”; in data set [4] (Heptane, 25° C.), “S < 3.7 mg/mL”. The Solubility result is “S < 3.7 mg/mL” in data set [4] (Heptane, 50° C.); “S > 306.0 mg/mL” in data set [4] (Methanol, 25° C.); “S > 319.0 mg/mL” in data set [4] (Tetrahydrofuran, 25° C.); “S > 314.5 mg/mL” in data set [4] (Water, 25° C.).

In the case of `CCC(=O)[O][Mn][O]C(=O)CC.c1cc2nc(c1)CN[C@H]1CCCC[C@@H]1NCCN[C@H]1CCCC[C@@H]1NC2` [Sample 8429-97-03], in data set [2] (P2O5, 4 days), the “Result (form)” value is reported as “E + A”.

As to `CCC(=O)[O][Mn][O]C(=O)CC.c1cc2nc(c1)CN[C@H]1CCCC[C@@H]1NCCN[C@H]1CCCC[C@@H]1NC2` [Form 8429-39-01], the Observation in data set [2] (amorphous material (pale light yellow) after held @ 100° C., 5 min.) is given as 3. peach in color.

On to `CCC(=O)[O][Mn][O]C(=O)CC.c1cc2nc(c1)CN[C@H]1CCCC[C@@H]1NCCN[C@H]1CCCC[C@@H]1NC2` [Sample 8429-84-01], for which the “Result (form)” value in data set [2] (8429-79-01 and 8429-79-02, Form A + E combined and stored over P2O5, 5 days) is recorded as “E + A”.

As to `CCC(=O)[O][Mn][O]C(=O)CC.c1cc2nc(c1)CN[C@H]1CCCC[C@@H]1NCCN[C@H]1CCCC[C@@H]1NC2` [Sample 8429-73-01], the DSC minor endotherm result in data set [1] was “minor endotherm near 197 °C”. The “XRPD Result” value in data set [5] is on record as “Form E + peaks”.
